Experiment [1] concerns the target NMDAR expressing GluN2B (NR2B) subunits (Rattus norvegicus, UniProt P35439+Q00960). It counts as cell-based.
The subject of experiment [2] is N-methyl-D-aspartate receptor (NMDAR). Also on record: species or system Rattus norvegicus.

The structures appear in SMILES notation.

Chain of NMDAR expressing GluN2B (NR2B) subunits (Q00960 27-1482, other chains not shown): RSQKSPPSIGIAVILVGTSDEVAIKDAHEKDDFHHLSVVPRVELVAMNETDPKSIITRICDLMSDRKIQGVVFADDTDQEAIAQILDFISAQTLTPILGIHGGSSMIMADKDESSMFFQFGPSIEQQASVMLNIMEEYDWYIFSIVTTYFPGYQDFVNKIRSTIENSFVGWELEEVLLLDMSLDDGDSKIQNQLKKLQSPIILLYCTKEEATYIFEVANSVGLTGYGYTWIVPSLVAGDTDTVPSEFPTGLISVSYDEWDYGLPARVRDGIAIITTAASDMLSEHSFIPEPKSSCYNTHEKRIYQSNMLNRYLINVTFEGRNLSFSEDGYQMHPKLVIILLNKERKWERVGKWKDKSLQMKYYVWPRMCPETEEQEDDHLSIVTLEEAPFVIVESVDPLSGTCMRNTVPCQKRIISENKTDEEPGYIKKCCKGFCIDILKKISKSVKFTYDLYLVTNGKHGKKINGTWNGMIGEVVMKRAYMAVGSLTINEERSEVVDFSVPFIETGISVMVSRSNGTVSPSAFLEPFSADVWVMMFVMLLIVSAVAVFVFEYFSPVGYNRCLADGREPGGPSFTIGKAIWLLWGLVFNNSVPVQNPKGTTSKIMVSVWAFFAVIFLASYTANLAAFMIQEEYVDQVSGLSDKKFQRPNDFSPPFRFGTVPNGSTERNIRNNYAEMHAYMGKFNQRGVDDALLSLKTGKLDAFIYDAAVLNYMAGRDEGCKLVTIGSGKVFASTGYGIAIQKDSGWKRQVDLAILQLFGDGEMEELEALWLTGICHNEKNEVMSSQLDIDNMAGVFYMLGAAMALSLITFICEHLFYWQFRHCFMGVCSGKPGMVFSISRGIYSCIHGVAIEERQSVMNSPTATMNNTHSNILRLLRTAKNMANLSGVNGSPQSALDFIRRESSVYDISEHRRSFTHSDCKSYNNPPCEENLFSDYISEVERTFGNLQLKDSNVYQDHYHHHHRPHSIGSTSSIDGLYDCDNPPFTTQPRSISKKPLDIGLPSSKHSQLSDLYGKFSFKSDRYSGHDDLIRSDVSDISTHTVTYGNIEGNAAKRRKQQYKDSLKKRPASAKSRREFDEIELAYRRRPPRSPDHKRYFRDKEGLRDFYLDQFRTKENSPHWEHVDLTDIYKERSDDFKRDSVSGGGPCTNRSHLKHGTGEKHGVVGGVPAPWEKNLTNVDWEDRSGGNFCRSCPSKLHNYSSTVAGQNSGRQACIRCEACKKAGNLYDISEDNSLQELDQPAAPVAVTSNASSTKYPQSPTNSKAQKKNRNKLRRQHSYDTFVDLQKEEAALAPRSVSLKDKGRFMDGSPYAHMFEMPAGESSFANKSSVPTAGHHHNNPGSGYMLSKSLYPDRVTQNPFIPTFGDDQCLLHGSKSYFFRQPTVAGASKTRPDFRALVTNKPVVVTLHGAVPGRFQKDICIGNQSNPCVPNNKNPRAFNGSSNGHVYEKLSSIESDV

With `CC(C(O)c1ccc(O)cc1)N1CCC(Cc2ccccc2)CC1` (centres unmarked) [ifenprodil], the “% inhibition at 10 μM” value in experiment [1] is 43.4 ± 7.3.
What is called EC50 is the midpoint of the concentration-response curve. Low values mean greater potency, high ones weaker potency. For `CNC1(c2ccccc2Cl)CCCCC1=O` (racemic) [ketamine], the EC50 in experiment [2] was ~10 µM.

The values above are taken from publication PMC4188808 (Neuropharmacology, 2014).
